The text below walks through data of paper PMC8952364, “Polyphenols as Inhibitors of Antibiotic Resistant Bacteria—Mechanisms Underlying Rutin Interference with Bacterial Virulence” (Pharmaceuticals, 2022).

By inhibition is commonly meant the percentage by which the read-out fell short of the control. Broadly, the MIC is the least concentration at which growth counts as inhibited. By MBC is commonly meant the lowest tested concentration that kills the bacteria rather than only halting them.

SMILES strings stand for the structures. Values after ≈ are worked out from the molar mass of the structure shown.

In data set [1] the test system is 24 h old P. aeruginosa IBRS P001 biofilms. The data set is described as follows: Biofilm eradication, eDNA assay. The format is cell-based, Pseudomonas aeruginosa. The conditions noted are these: MBC–4 MBC, Figure 5D. Here is the method: The quantity of eDNA was determined as previously described, with some modifications. […] Subsequently, the planktonic cells were removed, and the wells were washed with PBS. TE buffer (Tris-EDTA buffer solution) was added to the wells and content was mixed vigorously by pipetting. The samples were transferred to 1.5 mL tubes and centrifuged at 10,000× g for 10 min. After removal of the supernatant, the pellet was suspended in a TE buffer by vortexing. Absorbance of the supernatant (260 nm) was measured after centrifugation at 10,000× g for 15 min. We calculated the inhibition percentage of eDNA relative to an untreated control. The solvent treated sample was used as the control.
(§1) The bacterial cells were incubated in TSB enriched with 2% glucose in 96-well plates (Sarstedt, Germany) with adhesive bottom at 37 °C for 24 h. After incubation, wells were washed with PBS, and rutin (MBC–4 MBC) in TSB with 2% glucose was added. Incubation continued at 37 °C for another 24 h. The planktonic cells were removed.
(§2) The assays continued as described above for the crystal violet antibiofilm assay for the measurement of biofilm mass, biofilm MTT assay for the interference with cell viability, Congo red binding assay for estimation of exopolysaccharide production, and eDNA assay.

Data set [2] concerns P. aeruginosa IBRS P001 protease production. As to the kind of experiment: Protease assay (azocasein). The format is cell-based, Pseudomonas aeruginosa. The following applies: 0.25 mg/mL (0.5 MIC), compared to the control. Here is the method: The impact of rutin on the proteolytic activity of P. aeruginosa IBRS P001 was measured using azocasein as a substrate. […] Samples were centrifuged at 9660 g, room temperature, for 10 min (Heraeus biofuge stratos centrifuge, Thermo Electron Corporation, Waltham, MA, USA). Afterwards, the supernatant was mixed with azocasein (2%, SigmaAldrich, Germany) and incubated at 37 °C for 45 min. The reaction was stopped using 10% trichloroacetic acid and centrifuged at 9660× g, RT for 10 min. After centrifugation, the absorbance of the supernatants was measured at 440 nm and protease production in the treated sample calculated compared to the control (100% production).

The subject of data set [3] is P. aeruginosa IBRS P001 biofilm. The data set is described as follows: Congo red binding assay, exopolysaccharide production (biofilm formation). The format is cell-based, Pseudomonas aeruginosa. The procedure: The estimation of rutin’s impact on biofilm exopolysaccharide production (EPS) was determined by the Congo red binding assay. P. aeruginosa IBRS P001 biofilm EPS production was determined as previously described. […] The planktonic cells were removed, and the adherent cells were washed with PBS. Wells were stained with 1% (w/v) Congo red (SigmaAldrich, Germany) in the dark for 30 min. Wells were aspirated and subsequently the bound dye was solubilized with 200 μL DMSO. Absorbance at 490 nm was measured in a microtiter plate reader Multiskan™ FC microplate photometer (Thermo Scientific™, United States) and the inhibition percentage of EPS production was calculated according to the following equation:%Inhibition = [(A490control − A490sample)/A490control] × 100
With A490control representing the absorbance of the untreated biofilm and A490sample the absorbance of the rutin treated sample. The solvent treated sample was used as the control.

The test system is the same in data set [4]. The data set is described as follows: Biofilm MTT assay (biofilm formation). The format is cell-based, Pseudomonas aeruginosa. The conditions noted are these: rutin MIC, co-incubation 24 h. Here is the method: The impact of rutin on P. aeruginosa IBRS P001 biofilm formation was determined as previously described by estimating the metabolic activity of microbial cells using an MTT assay. […] The supernatants were then ejected and the biofilms washed with PBS. MTT reagent (200 μL, 0.5 mg/mL) was added and the plate was incubated at 37 °C in the dark for 2 h. The resulting dye was dissolved in DMSO and the absorbance was measured at 570 nm in a microtiter plate reader Multiskan™ FC Microplate Photometer, Thermo Scientific™. The inhibition percentage of biofilm cell viability was calculated:%Inhibition = [(A570control − A570sample)/A570control] × 100
With A570control representing the absorbance of untreated sample, and A570sample representing the absorbance of the rutin treated sample. A solvent-treated sample was used as the control.
(In general: Tetrazolium assays rely on reduction of a dye to a coloured formazan, in cell work by metabolically active cells.)

The next data set deals with MRSA IBRS MRSA 011. The format is cell-based, Staphylococcus aureus. Here is the method:
For the catheter biofilm eradication assay, P. aeruginosa and MRSA were incubated in TSB with 2% glucose with 1 cm long catheters in 24-well plates at 37 °C for 24 h. […] Subsequently, the catheters were washed and treated, as described above.

In data set [5] the test system is Methicillin resistant S. aureus IBRS MRSA 011. The data set is described as follows: Antimicrobial microdilution assay (MIC/MBC). The format is cell-based, Staphylococcus aureus. The conditions noted are these: Staphylococcus aureus, MRSA. The procedure, abridged:
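Broth microdilution: 0.5 McFarland suspensions, diluted twenty-fold, were mixed 1:10 with polyphenol dilutions (0.0039–1 mg/mL) and incubated 24 h at 37 °C.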
In general terms: Dilution methods test growth across graded concentrations, often in twofold steps.

Data set [6] concerns 24 h old P. aeruginosa IBRS P001 biofilms. The data set is described as follows: Biofilm eradication, crystal violet assay (biofilm mass). The format is cell-based, Pseudomonas aeruginosa. The conditions noted are these: 4 MBC—4 mg/mL, 24 h treatment. Here is the method: After incubation, each well was washed twice with sterile PBS (phosphate-buffered saline, pH 7.4) and fixed with methanol for 10 min. After removal of methanol the plate was air-dried. The biofilm was stained with 0.1% crystal violet (Bio-Merieux, Marcy l’Etoile, France) for 30 min. The plate was washed with water, air dried, and the stain was dissolved with 200 μL of 96% ethanol (Zorka, Sabac, Serbia). The absorbance was read at 620 nm on a Multiskan™ FC microplate photometer (Thermo Scientific™, Waltham, MA, USA). The results are presented as biofilm forming capacity (%) compared to control.
as §1, §2

The test system of a further data set is EPS production. More on the design: method as in doi:10.1016/j.foodcont.2018.02.044. The conditions noted are these: 200 µg/mL of rutin; cited from earlier work.

For the compound `C[C@@H]1O[C@@H](OC[C@H]2O[C@@H](Oc3c(-c4ccc(O)c(O)c4)oc4cc(O)cc(O)c4c3=O)[C@H](O)[C@@H](O)[C@@H]2O)[C@H](O)[C@H](O)[C@H]1O` [Rutin, rutin], the “levels of eDNA in the biofilm matrix, in words” value in data set [1] was “significantly reduced”. In addition, the “decrease of protease production” value in data set [2] is recorded as “more than 50%”. The “exopolysaccharide level, % of production compared to vehicle treated control” value was 72% in data set [3] (0.25 MIC), 56% in data set [3] (0.5 MIC) and 50% in data set [3] (MIC). Further, the inhibition at 250 µg/mL in data set [3] (Pseudomonas aeruginosa, IBRSP001BIOFILM, read-out: inhibition of produced exopolysaccharides) amounted to 44%. In data set [4], the “reduction of metabolic activity of cells forming the biofilm” value is 88%. The compound further had a catheter biofilm eradicated in the data set with MRSA IBRS MRSA 011 (2 MBC, 24 h old biofilm) of 74.2%. Further, the “biofilm cells remained viable after the treatment” value with MRSA IBRS MRSA 011 (24 h old catheter biofilm, concentration not printed (MBC-4MBC tested, probably 4 MBC)) stood at 9.6%. For the same compound, the MIC in data set [5] (37 °C, 24 h, read-out: MIC) is 500 mg/L (≈ 819 µM). Moreover, the MBC in data set [5] (subcultivation, 24 h at 37 °C, read-out: MBC) was 1000 mg/L (≈ 1640 µM). For the same compound, the “inhibition of pre-formed biofilm biomass” value in data set [6] is on record as 35%. Besides, in the data set on EPS production, the “inhibition of EPS production” value is recorded as “more than 40%”.
